Source: paper PMC7281072 (Cancers, 2020)

Assays:
[1] = system: SKOV-3 human ovarian adenocarcinoma xenograft; parameters: species or system CB17 SCID mice; settings: mouse, in vivo
[2] = system: OVCAR-5 human ovarian adenocarcinoma xenograft; parameters: species or system CB17 SCID mice; settings: mouse, in vivo
pAKT = test: Western immunoblotting densitometry, pAKT, OVCAR-3 cells; format: cell-based, human; settings: 25 μM; for ratio [pAKT]/[GAPDH] band intensity: OVCAR-3 cells; for ratio [pAKT]/[GAPDH] band intensity, single blot (panel A): panel A upper set, cell line not given, control ratio 1.21
pERK1,2 [3] = test: Western immunoblotting densitometry, pERK1,2, OVCAR-3 cells; format: cell-based, human; settings: 25 μM; for ratio [pERK1+pERK2]/[GAPDH] band intensity: OVCAR-3 cells; for ratio [pERK1+pERK2]/[GAPDH] band intensity, single blot (panel A): panel A upper set, cell line not given
pERK1,2 [4] = test: Western immunoblotting densitometry, pERK1,2, SKOV-3 cells; format: cell-based, human; settings: 25 μM; for ratio [pERK1+pERK2]/[GAPDH] band intensity: SKOV-3 cells; for ratio [pERK1+pERK2]/[GAPDH] band intensity, single blot (panel A): panel A lower set, cell line not given
OVCAR-3 cancer cell line [5] = system: OVCAR-3 cancer cell line
OVCAR-5 cancer cell line [6] = system: OVCAR-5 cancer cell line
[7] = system: UWB1.289 cancer cell line
[8] = system: UWB1.289+BRCA1 cancer cell line
CB17 SCID mice = settings: both, mouse, in vivo, ip
OVCAR-3 cancer cell line [9] = test: cells; settings: Homo sapiens, OVCAR-3, 48 h
OVCAR-5 cancer cell line [10] = test: cells; settings: Homo sapiens, OVCAR-5, 48 h
SK-OV-3 cancer cell line = test: cells; settings: Homo sapiens, SK-OV-3, 48 h
[11] = system: UWB1.289 cancer cell line; test: cells; settings: Homo sapiens, UWB1289, 48 h
[12] = system: UWB1.289+BRCA1 cancer cell line; test: cells; settings: Homo sapiens, 48 h
[13] = read-out: GI50 (50% Growth Inhibition)
[14] = read-out: IC50 (cytotoxic effect)

`C[C@]12CC[C@H]3[C@@H](CCC4=CC(=O)NCC[C@@]43C)[C@@H]1CC[C@@H]2OC(=O)CCOc1ccc(N(CCCl)CCCl)cc1` [ENGA-L06E, 5a,7a-dimethyl-2-oxo-2,3,4,5,5a,5b,6,7,7a,8,9,10,10a,10b,11,12-hexa decahydrocyclopenta [5, 6] naphtho [1,2-d] azepin-8-yl 3-(4-(bis(2-chloroethyl)amino)phenoxy) propanoate] was tested, and the “Median Overall Survival (OS)” value [1] was 112 days, the “Progression Free Survival (PFS)” value [1] was 11 days and the “Response Rate (RR)” value [1] was 100%. For the same compound, the “Cures (mice alive for 120 days after tumor inoculation)” value ([1]; ip) was 2/5, the “MST (mean survival time)” value ([1]; ip) was 79.6 ± 4.0 p < 0.01 Days and the “T/C% (mean survival time of treated versus saline controls)” value ([1]; ip) was 195.6%. The “TI% (Tumor Inhibition)” value ([1]; ip) was 67.6%, the “size of the primary tumor” value ([1]; ip) was 478 ± 18.3 mm^3 and the “Median Overall Survival (OS)” value [2] was 98 days. For the same compound, the “Progression Free Survival (PFS)” value [2] was 27 days, the “Response Rate (RR)” value [2] was 100% and the “Cures (mice alive for 120 days after tumor inoculation)” value ([2]; ip) was 0/5. For the same compound, the “MST (mean survival time)” value ([2]; ip) was 93.2 ± 2.4 p < 0.01 Days, the “T/C% (mean survival time of treated versus saline controls)” value ([2]; ip) was 184.8% and the “TI% (Tumor Inhibition)” value ([2]; ip) was 117.0%. For the same compound, the “size of the primary tumor” value ([2]; ip) was 220 ± 19.1 mm^3, the “ratio [pAKT]/[GAPDH] band intensity” value (pAKT; 30min, control ratio 1.23) was 0.92 and the “ratio [pAKT]/[GAPDH] band intensity” value (pAKT; 1h, control ratio 1.14) was 0.62. For the same compound, the “ratio [pAKT]/[GAPDH] band intensity” value (pAKT; 3h, control ratio 1.27) was 0.61, the “ratio [pAKT]/[GAPDH] band intensity” value (pAKT; 6h, control ratio 1.26) was 0.54 and the “ratio [pAKT]/[GAPDH] band intensity” value (pAKT; 12h, control ratio 1.18) was 0.50. For the same compound, the “ratio [pAKT]/[GAPDH] band intensity” value (pAKT; 24h, control ratio 1.29) was 0.59, the “ratio [pAKT]/[GAPDH] band intensity, single blot (panel A)” value (pAKT; 1h) was 0.52 and the “ratio [pAKT]/[GAPDH] band intensity, single blot (panel A)” value (pAKT; 3h) was 0.22. For the same compound, the “ratio [pERK1+pERK2]/[GAPDH] band intensity” value (pERK1,2 [3]; 30min, control ratio 1.71) was 1.40, the “ratio [pERK1+pERK2]/[GAPDH] band intensity” value (pERK1,2 [3]; 1h, control ratio 1.65) was 0.96 and the “ratio [pERK1+pERK2]/[GAPDH] band intensity” value (pERK1,2 [3]; 3h, control ratio 1.99) was 1.11. For the same compound, the “ratio [pERK1+pERK2]/[GAPDH] band intensity” value (pERK1,2 [3]; 6h, control ratio 1.85) was 0.54, the “ratio [pERK1+pERK2]/[GAPDH] band intensity” value (pERK1,2 [3]; 12h, control ratio 1.82) was 0.49 and the “ratio [pERK1+pERK2]/[GAPDH] band intensity” value (pERK1,2 [3]; 24h, control ratio 1.92) was 0.58. For the same compound, the “ratio [pERK1+pERK2]/[GAPDH] band intensity, single blot (panel A)” value (pERK1,2 [3]; 1h, control ratio 1.85) was 0.74, the “ratio [pERK1+pERK2]/[GAPDH] band intensity, single blot (panel A)” value (pERK1,2 [3]; 3h, control ratio 1.85) was 1.02 and the “ratio [pERK1+pERK2]/[GAPDH] band intensity” value (pERK1,2 [4]; 15min, control ratio 1.70) was 1.91. The “ratio [pERK1+pERK2]/[GAPDH] band intensity” value (pERK1,2 [4]; 30min, control ratio 1.70) was 1.74, the “ratio [pERK1+pERK2]/[GAPDH] band intensity” value (pERK1,2 [4]; 1h, control ratio 1.78) was 1.35 and the “ratio [pERK1+pERK2]/[GAPDH] band intensity” value (pERK1,2 [4]; 3h, control ratio 1.74) was 0.68. The “ratio [pERK1+pERK2]/[GAPDH] band intensity” value (pERK1,2 [4]; 12h, control ratio 1.61) was 0.65, the “ratio [pERK1+pERK2]/[GAPDH] band intensity, single blot (panel A)” value (pERK1,2 [4]; 1h, control ratio 1.78) was 0.99 and the “ratio [pERK1+pERK2]/[GAPDH] band intensity, single blot (panel A)” value (pERK1,2 [4]; 3h, control ratio 1.78) was 0.39. The “TGI (Total Growth Inhibition)” value (OVCAR-3 cancer cell line [5]) was 32 ± 1.8 μΜ, the “TGI (Total Growth Inhibition)” value (OVCAR-5 cancer cell line [6]) was 42 ± 2.8 μΜ and the “TGI (Total Growth Inhibition)” value [7] was 8 ± 0.8 μΜ. For the same compound, the “TGI (Total Growth Inhibition)” value [8] was 28 ± 1.9 μΜ, the LD10 (CB17 SCID mice) was 120 mg/kg and the GI50 (OVCAR-3 cancer cell line [9]; [13]) was 22 ± 0.9 µM. It also gave an IC50 (OVCAR-3 cancer cell line [9]; [14]) of 43 ± 2.9 µM, a GI50 (OVCAR-5 cancer cell line [10]; [13]) of 25 ± 1.4 µM and an IC50 (OVCAR-5 cancer cell line [10]; [14]) of 65 ± 3.4 µM. It also gave a GI50 (SK-OV-3 cancer cell line; [13]) of 18 ± 0.9 µM, an IC50 (SK-OV-3 cancer cell line; [14]) of 76 ± 7.5 µM and a GI50 [11, 13] of 3.5 ± 0.4 µM. The IC50 [11, 14] was 20 ± 1.1 µM, the GI50 [12, 13] was 12 ± 0.7 µM and the IC50 [12, 14] was 40 ± 3.5 µM.
